Legend:
[1] = Solubility in methyl ethyl ketone (MEK) and cyclopentanone (CPN); format: physicochemical; settings: for Solubility Evaluation: MEK or CPN; for Solubility CPO: cyclopentanone; for Solubility CPO / Solubility MEK: shaken at 50° C., left at room temperature (23° C.) for 10 minutes; for Solubility MEK: methyl ethyl ketone
Method: Specifically, 50 mg of the compound was weighed into a 1.5-mL sample bottle, and a solvent was added thereto until the solid content became 40% by weight (75 mg).
The mixture was thoroughly shaken by the hand at 50° C. and left to stand at room temperature (23° C.) for 10 minutes. Then, this operation was stopped in a case where the mixture was clear upon visual observation, and it was determined that the solubility was 40% by weight. A solvent was added so that the solid content became 35% by weight in a case where there were undissolved residues (+18 mg). The mixture was thoroughly shaken by the hand at 50° C. and left to stand at room temperature (23° C.) for 10 minutes. […] A solvent was added so that the solid content became 30% by weight in a case where there were undissolved residues. The same operation was performed in 5%-by-weight steps and repeated up to 5% by weight. In a case where there were undissolved residues, it was determined that the solubility was less than 5% by weight (<5% by weight), and the operation was stopped. Methyl ethyl ketone (MEK) and cyclopentanone (CPN) were used as solvents for solubility measurement.

[2] = Durability of optically anisotropic film at high temperature and high humidity; format: physicochemical; settings: for Durability 100° C. Relatibe 144 hours: film left 144 hours at relative humidity 95%, variation in Re (550); for Durability of optically anisotropic film: result in words
Method: With regard to a test condition for durability, a test in which the film was left to stand for 144 hours in an environment of a relative humidity of 95% at 100° C. was performed as described in Table 6 below.

In the case of `C=CC(=O)OCCCCCCOc1ccc(OC(=O)C2CCC(C(=O)Oc3cc(C(C)(C)C)c(OC(=O)C4CCC(C(=O)Oc5ccc(OCCCCCCOC(=O)C=C)cc5)CC4)c4c3SC(=C(C#N)C#N)S4)CC2)cc1` (centres unmarked) [Compound E-1], the “Solubility Evaluation” value [1] is reported as “C (A solubility in any one of MEK or CPN is less than 15%.)”, the “Solubility CPO” value [1] is reported as 10 % by weight and the “Solubility MEK” value [1] is reported as 8 % by weight. For the same compound, the “Durability 100° C. Relatibe 144 hours” value [2] was “C (A variation in Re (550) after the test with respect to the initial retardation value is 30% or more.)” and the “Durability of optically anisotropic film” value [2] was “deteriorate”.

With `C=CC(=O)OCCOC(=O)CCC(=O)OCCc1ccc(OC(=O)C2CCC(C(=O)Oc3c(C(C)(C)C)cc(OC(=O)C4CCC(C5CCC(CC)CC5)CC4)c4c3SC(=C(C#N)C#N)S4)CC2)cc1` (centres unmarked) [Compound I-2] the “Solubility Evaluation” value [1] was “A (A solubility in any one of MEK or CPN is 30% or more.)”, the “Solubility CPO” value [1] was 30 % by weight and the “Solubility MEK” value [1] was 35 % by weight. The “Durability 100° C. Relatibe 144 hours” value [2] was “A (A variation in Re (550) after the test with respect to the initial retardation value is less than 15% of the initial value.)”.

In the case of `C=CC(=O)OCCOC(=O)CCC(=O)OCCc1ccc(OC(=O)C2CCC(C(=O)Oc3cc(C(C)(C)C)c(OC(=O)C4CCC(C(=O)Oc5ccc(CCOC(=O)CCC(=O)OCCOC(=O)C=C)cc5)CC4)c4c3SC(=C(C#N)C#N)S4)CC2)cc1` [Compound D-1], the “Solubility Evaluation” value [1] is reported as “A (A solubility in any one of MEK or CPN is 30% or more.)”, the “Solubility CPO” value [1] is reported as 40 % by weight and the “Solubility MEK” value [1] is reported as 40 % by weight. The “Durability 100° C. Relatibe 144 hours” value [2] was “C (A variation in Re (550) after the test with respect to the initial retardation value is 30% or more.)” and the “Durability of optically anisotropic film” value [2] was “deteriorate”.

With `C=CC(=O)OCCCCCCOc1ccc(OC(=O)C2CCC(C(=O)Oc3c(C(C)(C)C)cc(OC(=O)C4CCC(C5CCC(CC)CC5)CC4)c4c3SC(=C(C#N)C#N)S4)CC2)cc1` (centres unmarked) [Compound I-3] the “Solubility Evaluation” value [1] was “B (A solubility in any one of MEK or CPN is 15% or more and less than 30%.)”, the “Solubility CPO” value [1] was 20 % by weight and the “Solubility MEK” value [1] was 10 % by weight. For the same compound, the “Durability 100° C. Relatibe 144 hours” value [2] was “A (A variation in Re (550) after the test with respect to the initial retardation value is less than 15% of the initial value.)”.

In the case of `C=CC(=O)OCC(C)(C)COC(=O)CCC(=O)OCCc1ccc(OC(=O)C2CCC(C(=O)Oc3c(C)cc(OC(=O)C4CCC(C5CCC(CC)CC5)CC4)c4c3SC(=C(C#N)C#N)S4)CC2)cc1` (centres unmarked) [Compound B-1], the “Solubility Evaluation” value [1] is reported as “B (A solubility in any one of MEK or CPN is 15% or more and less than 30%.)”, the “Solubility CPO” value [1] is reported as 15 % by weight and the “Solubility MEK” value [1] is reported as 5 % by weight. The “Durability 100° C. Relatibe 144 hours” value [2] was “C (A variation in Re (550) after the test with respect to the initial retardation value is 30% or more.)” and the “Durability of optically anisotropic film” value [2] was “deteriorated”.

For `C=CC(=O)OCC(C)(C)COC(=O)CCC(=O)OCCc1ccc(OC(=O)C2CCC(C(=O)Oc3cc(C(C)(C)C)c(OC(=O)C4CCC(C5CCC(CC)CC5)CC4)c4c3SC(=C(C#N)C#N)S4)CC2)cc1` (centres unmarked) [Compound I-13], the “Solubility Evaluation” value [1] was “B (A solubility in any one of MEK or CPN is 15% or more and less than 30%.)”, the “Solubility CPO” value [1] was 15 % by weight and the “Solubility MEK” value [1] was 5 % by weight. For the same compound, the “Durability 100° C. Relatibe 144 hours” value [2] was “B (A variation in Re (550) after the test with respect to the initial retardation value is 15% or more and less than 30% of the initial value.)”.

With `CCC1CCC(C2CCC(C(=O)Oc3cc(C(C)(C)C)c(OC(=O)C4CCC(C5CCC(CC)CC5)CC4)c4c3SC(=C(C#N)C#N)S4)CC2)CC1` (centres unmarked) [Compound I-1f] the “Solubility Evaluation” value [1] was “C (A solubility in any one of MEK or CPN is less than 15%.)”, the “Solubility CPO” value [1] was 1 % by weight and the “Solubility MEK” value [1] was under 1 % by weight.

With `C=CC(=O)OCC(C)(C)COC(=O)CCC(=O)OCCc1ccc(OC(=O)C2CCC(C(=O)Oc3ccc(OC(=O)C4CCC(C5CCC(CC)CC5)CC4)c4c3SC(=C(C#N)C#N)S4)CC2)cc1` (centres unmarked) [Compound A-1] the “Solubility Evaluation” value [1] was “C (A solubility in any one of MEK or CPN is less than 15%.)”, the “Solubility CPO” value [1] was 10 % by weight and the “Solubility MEK” value [1] was 1 % by weight. For the same compound, the “Durability 100° C. Relatibe 144 hours” value [2] was “C (A variation in Re (550) after the test with respect to the initial retardation value is 30% or more.)” and the “Durability of optically anisotropic film” value [2] was “deteriorated”.

With `C=CC(=O)OCC(C)(C)COC(=O)CCC(=O)OCCc1ccc(OC(=O)C2CCC(C(=O)Oc3cc(C(C)(C)C)c(OC(=O)C4CCC(C(=O)Oc5ccc(CCOC(=O)CCC(=O)OCC(C)(C)COC(=O)C=C)cc5)CC4)c4c3SC(=C(C#N)C#N)S4)CC2)cc1` (centres unmarked) [Compound C-1] the “Solubility Evaluation” value [1] was “A (A solubility in any one of MEK or CPN is 30% or more.)”, the “Solubility CPO” value [1] was 40 % by weight and the “Solubility MEK” value [1] was 40 % by weight.

— patent US11225605B2, “Polymerizable liquid crystal compound, method for producing polymerizable liquid crystal compound, polymerizable liquid crystal composition, optically anisotropic film, optical film, polarizing plate, and image display device” (FUJIFILM Corporation, priority 2017, dated 2022)
